According to patent publication US12440496B2, “Natriuretic peptide receptor a agonists useful for the treatment of cardiometabolic diseases, kidney disease and diabetes” (Merck Sharp & Dohme LLC, priority 2019, dated 2025):
pEC50: −log10 of the molar value.

Target: T1, hNPRA (Homo sapiens, UniProt P16066)
T1 construct: expressed in transfected cells
T1 sequence (P16066 33-1061): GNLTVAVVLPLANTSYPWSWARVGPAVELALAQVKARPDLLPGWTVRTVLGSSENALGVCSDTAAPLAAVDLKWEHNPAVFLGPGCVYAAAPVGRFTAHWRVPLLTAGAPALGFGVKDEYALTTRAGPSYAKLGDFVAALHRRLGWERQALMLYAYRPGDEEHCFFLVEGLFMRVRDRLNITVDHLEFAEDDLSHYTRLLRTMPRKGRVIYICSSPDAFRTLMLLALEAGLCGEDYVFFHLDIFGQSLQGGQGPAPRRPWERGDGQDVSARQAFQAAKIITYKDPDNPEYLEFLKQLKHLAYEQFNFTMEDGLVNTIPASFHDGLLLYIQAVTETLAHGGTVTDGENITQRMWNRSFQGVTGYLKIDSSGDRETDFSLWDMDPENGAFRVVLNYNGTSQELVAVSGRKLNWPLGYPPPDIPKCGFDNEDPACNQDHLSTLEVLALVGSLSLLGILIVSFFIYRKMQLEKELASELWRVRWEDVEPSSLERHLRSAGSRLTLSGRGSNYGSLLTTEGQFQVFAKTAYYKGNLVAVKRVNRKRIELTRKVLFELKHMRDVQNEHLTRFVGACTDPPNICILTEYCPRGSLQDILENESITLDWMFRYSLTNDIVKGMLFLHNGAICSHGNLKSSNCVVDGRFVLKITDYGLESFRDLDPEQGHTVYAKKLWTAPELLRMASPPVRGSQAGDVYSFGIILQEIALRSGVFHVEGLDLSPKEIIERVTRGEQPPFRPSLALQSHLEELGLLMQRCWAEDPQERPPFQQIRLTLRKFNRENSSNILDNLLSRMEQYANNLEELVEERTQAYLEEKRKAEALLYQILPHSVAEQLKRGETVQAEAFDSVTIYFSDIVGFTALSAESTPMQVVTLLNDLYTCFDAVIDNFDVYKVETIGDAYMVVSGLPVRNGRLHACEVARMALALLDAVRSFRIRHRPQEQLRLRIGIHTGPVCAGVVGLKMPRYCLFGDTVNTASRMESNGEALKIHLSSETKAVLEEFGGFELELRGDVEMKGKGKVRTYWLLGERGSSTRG
Assay: NPRA Functional Cell Assay (cGMP HTRF, NPRA HEK JumpIn stable cells)
Assay type: cell-based
Details: cGMP production, 1 hour at 37° C., 10-point dose response
Outline: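 cGMP HTRF read-out after 1 hour compound treatment at 37° C. of human NPRA-expressing HEK JumpIn cells, 1500 cells/well, in buffer with phosphodiesterase inhibitors IBMX and RO20 (100 uM each). Signal converted to [cGMP] by calibration curve; EC50s fitted by 4-parameter logistic; 50 nM h-ANP as positive response.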

SMILES | pEC50
CC(C)(C)[C@H]1CCc2nc3sc(C(=O)N[C@H](CCN4CCC(O)CC4)c4ccc(-c5nc[nH]c5C#N)cc4)nc3cc2C1 (racemic) [Example 178, rac-(7S)-7-tert-butyl-N-[rac-(1R)-1-[4-(5-cyano-1H-imidazol-4-yl)phenyl]-3-(4-hydroxy-1-piperidyl)propyl]-5,6,7,8-tetrahydrothiazolo[5,4-b]quinoline-2-carboxamide] | 5.90
Cn1cncc1-c1ccc([C@@H](CCN2CCC(O)CC2)NC(=O)c2nc3cc4c(nc3s2)CC[C@H](C(C)(C)C)C4)cc1 (racemic) [Example 179, rac-(7S)-7-tert-butyl-N-[rac-(1R)-3-(4-hydroxy-1-piperidyl)-1-[4-(3-methylimidazol-4-yl)phenyl]propyl]-5,6,7,8-tetrahydrothiazolo[5,4-b]quinoline-2-carboxamide] | 5.85
CC(C)(C)[C@H]1CCc2nc3sc(C(=O)N[C@H](CCN4CCC(O)CC4)c4ccc(-c5cnsc5)cc4)nc3cc2C1 (racemic) [Example 180, rac-(7S)-7-tert-butyl-N-[rac-(1R)-3-(4-hydroxy-1-piperidyl)-1-(4-isothiazol-4-ylphenyl)propyl]-5,6,7,8-tetrahydrothiazolo[5,4-b]quinoline-2-carboxamide] | 5.84
CC(C)(C)[C@H]1CCc2nc3sc(C(=O)N[C@H](CCN4CCC(O)CC4)c4ccc(-c5ncc(O)cc5F)cc4)nc3cc2C1 (racemic) [Example 181, rac-(7S)-7-tert-butyl-N-[rac-(1R)-1-[4-(3-fluoro-5-hydroxy-2-pyridyl)phenyl]-3-(4-hydroxypiperidin-1-ium-1-yl)propyl]-5,6,7,8-tetrahydrothiazolo[5,4-b]quinoline-2-carboxamide; 2,2,2-trifluoroacetate] | 5.84
CC(C)(C)[C@H]1CCc2nc3sc(C(=O)N[C@H](CCN4CCC(O)CC4)c4ccc(-c5cc(=O)[nH]c(=O)[nH]5)cc4)nc3cc2C1 (racemic) [Example 182, rac-(7S)-7-tert-butyl-N-[rac-(1R)-1-[4-(2,4-dioxo-1H-pyrimidin-6-yl)phenyl]-3-(4-hydroxy-1-piperidyl)propyl]-5,6,7,8-tetrahydrothiazolo[5,4-b]quinoline-2-carboxamide] | 5.79
CC(C)(C)[C@H]1CCc2nc3sc(C(=O)N[C@H](CCN4CCC(O)CC4)c4ccc(-c5cnsn5)cc4)nc3cc2C1 (racemic) [Example 183, rac-(7S)-7-tert-butyl-N-[rac-(1R)-3-(4-hydroxy-1-piperidyl)-1-[4-(1,2,5-thiadiazol-3-yl)phenyl]propyl]-5,6,7,8-tetrahydrothiazolo[5,4-b]quinoline-2-carboxamide] | 5.78
CC(C)(C)[C@H]1CCc2nc3sc(C(=O)N[C@H](CCN4CCC(O)CC4)c4ccc(-c5cc(F)c(O)c(F)c5)cc4)nc3cc2C1 (racemic) [Example 184, rac-(7S)-7-tert-butyl-N-[rac-(1R)-1-[4-(3,5-difluoro-4-hydroxy-phenyl)phenyl]-3-(4-hydroxypiperidin-1-ium-1-yl)propyl]-5,6,7,8-tetrahydrothiazolo[5,4-b]quinoline-2-carboxamide; 2,2,2-trifluoroacetate] | 5.77
CC(C)(C)[C@H]1CCc2nc3sc(C(=O)N[C@H](CCN4CCC(O)CC4)c4ccc(-c5cncs5)cc4)nc3cc2C1 (racemic) [Example 185, rac-(7S)-7-tert-butyl-N-[rac-(1R)-3-(4-hydroxypiperidin-1-ium-1-yl)-1-(4-thiazol-5-ylphenyl)propyl]-5,6,7,8-tetrahydrothiazolo[5,4-b]quinoline-2-carboxamide; 2,2,2-trifluoroacetate] | 5.72
CC(C)(C)[C@H]1CCc2nc3sc(C(=O)N[C@H](CCN4CCC(O)CC4)c4ccc(N5CCOC5=O)nc4)nc3cc2C1 (racemic) [Example 186, rac-(7S)-7-tert-butyl-N-[rac-(1R)-3-(4-hydroxy-1-piperidyl)-1-[6-(2-oxooxazolidin-3-yl)-3-pyridyl]propyl]-5,6,7,8-tetrahydrothiazolo[5,4-b]quinoline-2-carboxamide] | 6.46
Cc1nn(-c2ccc([C@@H](CCN3CCC(O)CC3)NC(=O)c3nc4cc5c(nc4s3)CC[C@H](C(C)(C)C)C5)cn2)c(C)c1O (racemic) [Example 187, ammonium; 3,5-dimethyl-1-[5-[rac-(1R)-3-(4-hydroxy-1-piperidyl)-1-[[rac-(7S)-7-tert-butyl-5,6,7,8-tetrahydrothiazolo[5,4-b]quinoline-2-carbonyl]amino]propyl]-2-pyridyl]pyrazol-4-olate] | 6.19
CC(C)(C)C1CCc2nc3sc(C(=O)NC(CCN4CCC(O)CC4)c4ccc(N5CCC(O)C5=O)nc4)nc3cc2C1 (racemic) [Example 188, rac-(7S)-7-tert-butyl-N-[rac-(1R)-1-[6-(3-hdyroxy-2-oxo-pyrrolidin-1-yl)-3-pyridyl]-3-(4-hydroxy-1-piperidyl)propyl]-5,6,7,8-tetrahydrothiazolo[5,4-b]quinoline-2-carboxamide] | 6.03
CC(C)(C)[C@H]1CCc2nc3sc(C(=O)N[C@H](CCN4CCC(O)CC4)c4ccc(N5CCC(O)CC5)nc4)nc3cc2C1 (racemic) [Example 189, rac-(7S)-7-tert-butyl-N-[rac-(1R)-3-(4-hydroxy-1-piperidyl)-1-[6-(4-hydroxy-1-piperidyl)-3-pyridyl]propyl]-5,6,7,8-tetrahydrothiazolo[5,4-b]quinoline-2-carboxamide] | 5.86
CC(C)(C)[C@H]1CCc2nc3sc(C(=O)N[C@H](CCN4CCC(O)CC4)c4ccc(N5CCC(O)C5)nc4)nc3cc2C1 (mixture of isomers) [Example 190, rac-(7S)-7-tert-butyl-N-[rac-(1R)-3-(4-hydroxy-1-piperidyl)-1-[6-(3-hydroxypyrrolidin-1-yl)-3-pyridyl]propyl]-5,6,7,8-tetrahydrothiazolo[5,4-b]quinoline-2-carboxamide] | 5.72
Cc1n[nH]c(C)c1Oc1ccc([C@@H](CCN2CCC(O)CC2)NC(=O)c2nc3cc4c(nc3s2)CC[C@H](C(C)(C)C)C4)cn1 (racemic) [Example 191, rac-(7S)-7-tert-butyl-N-[rac-(1R)-1-[6-[(3,5-dimethyl-1H-pyrazol-4-yl)oxy]-3-pyridyl]-3-(4-hydroxy-1-piperidyl)propyl]-5,6,7,8-tetrahydrothiazolo[5,4-b]quinoline-2-carboxamide] | 6.20
CC(C)(C)[C@H]1CCc2nc3sc(C(=O)N[C@H](CCN4CCC(O)CC4)c4ccc(OCCO)nc4)nc3cc2C1 (racemic) [Example 192, rac-(7S)-7-tert-butyl-N-[rac-(1R)-1-[6-(2-hydroxyethoxy)-3-pyridyl]-3-(4-hydroxy-1-piperidyl)propyl]-5,6,7,8-tetrahydrothiazolo[5,4-b]quinoline-2-carboxamide] | 6.18
CC(C)(C)[C@H]1CCc2nc3sc(C(=O)N[C@H](CCN4CCC(O)CC4)c4ccc(OCC(N)=O)nc4)nc3cc2C1 (racemic) [Example 193, rac-(7S)-7-tert-butyl-N-[rac-(1R)-1-[6-(2-amino-2-oxo-ethoxy)-3-pyridyl]-3-(4-hydroxy-1-piperidyl)propyl]-5,6,7,8-tetrahydrothiazolo[5,4-b]quinoline-2-carboxamide] | 6.10
